Patent US20260097106A1, “AVIRULENT LIVE BACTERIAL VACCINES CURED OF PLASMIDS CONTAINING ANTIMICROBIAL RESISTANCE GENES” (Drs. Koehnk & Feldman, LLP, priority 2022, published 2026)

Legend:
Type in all cases: cell-based, E. coli
[1] = tested on: MS060520HM-PCISRAF18 cells; assay: Tetracycline HCl serial dilution in TSB media, turbidity
Experimental: Further evaluation of tetracycline sensitivity of cured MS060520HM-PCISRAF 18 cells was performed as follows: inoculating 10 ml of TSB media with MS060520HM-PCISRAF18 cells, incubating at 37° C. for 22 hours on orbital shaker at 150 rpm, preparing 1:1 serial dilutions of 5 ml tetracycline HCL in TSB media (from stock of 640 mg tetracycline HCl in 5 ml ultrapure water), inoculating the serial dilutions with 10 ul of the fermentate.

[2] = tested on: MS060520HM-PCISRAF18; assay: Growth on blood agar containing 16 μg/ml tetracycline HCl; details: 18 hours at 37° C.
Experimental: (§1) Comparison of tetracycline resistance between Edema Vac F18 cells cured of plasmids that contain AMR genes (MS060520HM-PCISRAF18) and Entero Vac K88 cells cured of plasmids that contain AMR genes (MS-K88-030321HM-PC2BSRAK88) was performed as follows: preparing subcultures of MS060520HM-PCISRAF18 and MS-K88-030321HM-PC2BSRAK88 on blood agar containing 16 μg/ml tetracycline HCl, incubating for 18 hours at 37° C., and observing haemolytic growth.

[3] = tested on: MS-K88-030321HM-PC2BSRAK88; assay: as above; details: 18 hours at 37° C.
Experimental: as §1

[4] = tested on: MS112101HM-competent (competent Edema Vac F18 cells); assay: AMR disc testing on Mueller Hinton agar plates; details: antibiotic disc
Experimental: (§2) AMR testing was performed comparing MS112101HM—SR, MS112101HM-AMR5, and MS112101HM-competent cells cultured on Mueller Hinton agar plates using Sulfatrim (SXT), Tetracycline (TE 30), Neomycin (NE 30), Sulfathiazine (ST 0.25), and Gentamicin (GM 10) discs.

[5] = tested on: MS112101HM-SR (Edema Vac F18 cells cured of plasmids that contain AMR genes); assay: AMR disc testing on Mueller Hinton agar plates
Experimental: as §2

[6] = tested on: MS112101HM-AMR5 (Edema Vac F18 transformed with AMR5 plasmid); assay: AMR disc testing on Mueller Hinton agar plates; details: antibiotic disc, Mueller Hinton plates
Experimental: as §2

[7] = tested on: ECMS091703HM-competent (competent Entero Vac K88 cells); assay: AMR disc testing on Mueller Hinton agar plates; details: antibiotic disc
Experimental: (§3) AMR testing was performed comparing ECMS091703HM-SR and ECMS091703HM-competent cells cultured on Mueller Hinton agar plates using Neomycin (NE 30) and Sulfathiazine (ST 0.25) discs. A master plate of ECMS091703HM-SR was produced as follows: subculturing a colony of ECMS091703HM-SR from LB agar containing 5% sucrose on new LB agar containing 5% sucrose, incubating overnight at 37° C., and storing sealed at 2-8° C.

[8] = tested on: ECMS091703HM-SR (Entero Vac K88 cells cured of plasmids that contain AMR genes); assay: AMR disc testing on Mueller Hinton agar plates
Experimental: as §3

## CN(C)[C@@H]1C(O)=C(C(N)=O)C(=O)[C@@]2(O)C(O)=C3C(=O)c4c(O)cccc4[C@@](C)(O)[C@H]3C[C@@H]12.Cl [Tet HCl, Tetracycline HCL]
[1]; Tet HCl 2 μg/ml in TSB media
  Turbidity 8 hours post inoculation: Pos
  Turbidity 24 hours post inoculation: Pos
[1]; Tet HCl 4 μg/ml in TSB media
  Turbidity 8 hours post inoculation: Pos
  Turbidity 24 hours post inoculation: Pos
[1]; Tet HCl 8 μg/ml in TSB media
  Turbidity 8 hours post inoculation: Pos
  Turbidity 24 hours post inoculation: Pos
[1]; Tet HCl 16 μg/ml in TSB media
  Turbidity 8 hours post inoculation: Pos
  Turbidity 24 hours post inoculation: Pos
[1]; Tet HCl 32 μg/ml in TSB media
  Turbidity 8 hours post inoculation: Pos
  Turbidity 24 hours post inoculation: Pos
[1]; Tet HCl 64 μg/ml in TSB media
  Turbidity 8 hours post inoculation: Slight
  Turbidity 24 hours post inoculation: Pos
[1]; Tet HCl 128 μg/ml in TSB media
  Turbidity 8 hours post inoculation: Neg
  Turbidity 24 hours post inoculation: Pos
[1]; tetracycline HCl in TSB media
  Concentration with inhibited growth: 128 µg/mL
[2]
  Tetracycline resistance (haemolytic growth): confirmed tetracycline resistance
[3]
  Tetracycline resistance (haemolytic growth): did not display any tetracycline resistance

## Sulfathiazine [ST 0.25]
[4]
  Ring measurement (radius, mm): 0 mm
[5]; antibiotic disc, Mueller Hinton plates, MS112101HM-SR
  Ring measurement (radius, mm): 15 mm
[5]; disc test, MS112101HM-SR compared with MS112101HM-competent
  Resistance of the strain to the antibiotic (in words): less resistance
[6]
  Ring measurement (radius, mm): 18 mm
[7]
  Ring measurement (radius, mm): 13 mm
[8]; antibiotic disc, Mueller Hinton plates, ECMS091703HM-SR
  Ring measurement (radius, mm): 20 mm
[8]; disc test, ECMS091703HM-SR compared with ECMS091703HM-competent
  Resistance of the strain to the antibiotic (in words): less resistance
